Experimental data taken from patent US20240376084A1, “INHIBITORS OF ALPHA-HEMOLYSIN OF STAPHYLOCOCCUS AUREUS” (Helmholtz-Zentrum Fur Infektionsforschung GmbH, priority 2021, published 2024).

Key:
[1] = target: hemolysin alpha from Staphylococcus aureus (Staphylococcus aureus, UniProt P09616); experiment: cell-based
[2] = target: S. aureus Alpha hemolysin (Staphylococcus aureus, UniProt P09616); experiment: cell-based; conditions: A549-LDH Assay activity
Sequence of S. aureus Alpha hemolysin (P09616 27-319 limits assumed): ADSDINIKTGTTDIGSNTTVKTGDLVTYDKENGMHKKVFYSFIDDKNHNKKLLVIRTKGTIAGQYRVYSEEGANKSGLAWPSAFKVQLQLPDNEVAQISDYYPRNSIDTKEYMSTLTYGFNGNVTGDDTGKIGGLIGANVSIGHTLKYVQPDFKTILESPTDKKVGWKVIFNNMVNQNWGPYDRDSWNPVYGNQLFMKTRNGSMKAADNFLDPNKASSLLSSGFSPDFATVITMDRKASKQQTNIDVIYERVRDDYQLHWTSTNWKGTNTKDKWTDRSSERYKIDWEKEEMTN

Sequence of hemolysin alpha from Staphylococcus aureus (P09616 27-319 limits assumed): as above

SMILES | IC50 [1] [nM] | EC50 [2] [nM] | EC50 [1] [nM]
Cc1cc2[nH]c(=O)c(=O)[nH]c2cc1S(=O)(=O)Nc1ccc(-c2ccccc2)c(Cl)c1 [Compound 1, N-(2-chloro-[1,1′-biphenyl]-4-yl)-7-methyl-2,3-dioxo-1,2,3,4-tetrahydroquinoxaline-6-sulfonamide] | < 30 | 30 to 100 | –
Cc1cc2[nH]c(=O)c(=O)[nH]c2cc1S(=O)(=O)Nc1ccc(-c2ccc(F)c(Cl)c2F)c(Cl)c1 [Compound 2, N-(2,3′-dichloro-2′,4′-difluoro-[1,1′-biphenyl]-4-yl)-7-methyl-2,3-dioxo-1,2,3,4-tetrahydroquinoxaline-6-sulfonamide] | < 30 | 100 to 1000 | –
Cc1cc2[nH]c(=O)c(=O)[nH]c2cc1S(=O)(=O)Nc1ccc(-c2ccc(F)cc2)c(Cl)c1 [Compound 3, N-(2-chloro-4′-fluoro-[1,1′-biphenyl]-4-yl)-7-methyl-2,3-dioxo-1,2,3,4-tetrahydroquinoxaline-6-sulfonamide] | < 30 | 30 to 100 | –
Cc1cc2[nH]c(=O)c(=O)[nH]c2cc1S(=O)(=O)Nc1ccc(-c2cccc(N(C)C)c2)c(Cl)c1 [Compound 4, N-(2-chloro-3′-(dimethylamino)-[1,1′-biphenyl]-4-yl)-7-methyl-2,3-dioxo-1,2,3,4-tetrahydroquinoxaline-6-sulfonamide] | < 30 | 30 to 100 | –
Cc1cc2[nH]c(=O)c(=O)[nH]c2cc1S(=O)(=O)Nc1ccc(-c2ccccc2F)c(Cl)c1 [Compound 5, N-(2-chloro-2′-fluoro-[1,1′-biphenyl]-4-yl)-7-methyl-2,3-dioxo-1,2,3,4-tetrahydroquinoxaline-6-sulfonamide] | < 30 | 30 to 100 | –
Cc1cc2[nH]c(=O)c(=O)[nH]c2cc1S(=O)(=O)Nc1ccc(-c2cccc(N3CCCC3)c2)c(Cl)c1 [Compound 6, N-(2-chloro-3′-(pyrrolidin-1-yl)-[1,1′-biphenyl]-4-yl)-7-methyl-2,3-dioxo-1,2,3,4-tetrahydroquinoxaline-6-sulfonamide] | < 30 | 100 to 1000 | –
Cc1cc2[nH]c(=O)c(=O)[nH]c2cc1S(=O)(=O)Nc1ccc(-c2ccsc2)c(Cl)c1 [Compound 7, N-(3-chloro-4-(thiophen-3-yl)phenyl)-7-methyl-2,3-dioxo-1,2,3,4-tetrahydroquinoxaline-6-sulfonamide] | < 30 | 100 to 1000 | –
Cc1cc2[nH]c(=O)c(=O)[nH]c2cc1S(=O)(=O)Nc1ccc(-c2ccc(Cl)cc2)c(Cl)c1 [Compound 8, N-(2,4′-dichloro-[1,1′-biphenyl]-4-yl)-7-methyl-2,3-dioxo-1,2,3,4-tetrahydroquinoxaline-6-sulfonamide] | < 30 | 100 to 1000 | –
CN(C)c1cccc(-c2ccc(NS(=O)(=O)c3cc4[nH]c(=O)c(=O)[nH]c4cc3Cl)cc2Cl)c1 [Compound 9, 7-chloro-N-(2-chloro-3′-(dimethylamino)-[1,1′-biphenyl]-4-yl)-2,3-dioxo-1,2,3,4-tetrahydroquinoxaline-6-sulfonamide] | < 30 | 100 to 1000 | –
O=c1[nH]c2cc(F)c(S(=O)(=O)Nc3ccc(-c4ccc5c(c4)NCC5)c(Cl)c3)cc2[nH]c1=O [Compound 10, N-(3-chloro-4-(indolin-6-yl)phenyl)-7-fluoro-2,3-dioxo-1,2,3,4-tetrahydroquinoxaline-6-sulfonamide] | < 30 | 100 to 1000 | –
Cc1cc2[nH]c(=O)c(=O)[nH]c2cc1S(=O)(=O)Nc1ccc(-c2ccc(F)c(Cl)c2)c(Cl)c1 [Compound 11, N-(2,3′-dichloro-4′-fluoro-[1,1′-biphenyl]-4-yl)-7-methyl-2,3-dioxo-1,2,3,4-tetrahydroquinoxaline-6-sulfonamide] | < 30 | 100 to 1000 | –
O=c1[nH]c2cc(Cl)c(S(=O)(=O)Nc3ccc(-c4ccc(F)cc4)c(Cl)c3)cc2[nH]c1=O [Compound 12, 7-chloro-N-(2-chloro-4′-fluoro-[1,1′-biphenyl]-4-yl)-2,3-dioxo-1,2,3,4-tetrahydroquinoxaline-6-sulfonamide] | < 30 | 100 to 1000 | –
Cc1cc2[nH]c(=O)c(=O)[nH]c2cc1S(=O)(=O)Nc1ccc(-c2ccc3c(c2)NCC3)c(Cl)c1 [Compound 13, N-(3-chloro-4-(indolin-6-yl)phenyl)-7-methyl-2,3-dioxo-1,2,3,4-tetrahydroquinoxaline-6-sulfonamide] | < 30 | 100 to 1000 | –
O=c1[nH]c2cc(Cl)c(S(=O)(=O)Nc3ccc(-c4ccccc4)c(Cl)c3)cc2[nH]c1=O [Compound 14, 7-chloro-N-(2-chloro-[1,1′-biphenyl]-4-yl)-2,3-dioxo-1,2,3,4-tetrahydroquinoxaline-6-sulfonamide] | < 30 | 100 to 1000 | –
O=c1[nH]c2cc(Br)c(S(=O)(=O)Nc3ccc(OC(F)(F)F)cc3)cc2[nH]c1=O [Compound 15, 7-bromo-2,3-dioxo-N-(4-(trifluoromethoxy)phenyl)-1,2,3,4-tetrahydroquinoxaline-6-sulfonamide] | < 30 | 30 to 100 | –
Cc1cc2[nH]c(=O)c(=O)[nH]c2cc1S(=O)(=O)Nc1cc(C)c(-c2ccco2)c(C)c1 [Compound 16, N-(4-(furan-2-yl)-3,5-dimethylphenyl)-7-methyl-2,3-dioxo-1,2,3,4-tetrahydroquinoxaline-6-sulfonamide] | < 30 | < 30 | –

SMILES | IC50 [1] [nM] | EC50 [2] [nM] | EC50 [1] [nM]
Cc1cc(NS(=O)(=O)c2cc3[nH]c(=O)c(=O)[nH]c3cc2C)ccc1-c1ccccc1 [Compound 17, 7-methyl-N-(2-methyl-[1,1′-biphenyl]-4-yl)-2,3-dioxo-1,2,3,4-tetrahydroquinoxaline-6-sulfonamide] | < 30 | < 30 | –
O=c1[nH]c2cc(F)c(S(=O)(=O)Nc3ccc(-c4ccc(F)cc4)c(Cl)c3)cc2[nH]c1=O [Compound 18, N-(2-chloro-4′-fluoro-[1,1′-biphenyl]-4-yl)-7-fluoro-2,3-dioxo-1,2,3,4-tetrahydroquinoxaline-6-sulfonamide] | < 30 | 30 to 100 | –
O=c1[nH]c2cc(Cl)c(S(=O)(=O)Nc3ccc(-c4ccc(F)c(Cl)c4)c(Cl)c3)cc2[nH]c1=O [Compound 19, 7-chloro-N-(2,3′-dichloro-4′-fluoro-[1,1′-biphenyl]-4-yl)-2,3-dioxo-1,2,3,4-tetrahydroquinoxaline-6-sulfonamide] | < 30 | 100 to 1000 | –
CCc1cc2[nH]c(=O)c(=O)[nH]c2cc1S(=O)(=O)Nc1ccc(OC(F)(F)F)cc1 [Compound 20, 7-ethyl-2,3-dioxo-N-(4-(trifluoromethoxy)phenyl)-1,2,3,4-tetrahydroquinoxaline-6-sulfonamide] | < 30 | 30 to 100 | –
O=c1[nH]c2cc(Cl)c(S(=O)(=O)Nc3ccc(-c4cccc(N5CCCC5)c4)c(Cl)c3)cc2[nH]c1=O [Compound 21, 7-chloro-N-(2-chloro-3′-(pyrrolidin-1-yl)-[1,1′-biphenyl]-4-yl)-2,3-dioxo-1,2,3,4-tetrahydroquinoxaline-6-sulfonamide] | < 30 | 100 to 1000 | –
Cc1cc2[nH]c(=O)c(=O)[nH]c2cc1S(=O)(=O)Nc1ccc(-c2ccoc2)c(Cl)c1 [Compound 22, N-(3-chloro-4-(furan-3-yl)phenyl)-7-methyl-2,3-dioxo-1,2,3,4-tetrahydroquinoxaline-6-sulfonamide] | < 30 | 100 to 1000 | –
Cc1cccc(-c2ccc(NS(=O)(=O)c3cc4[nH]c(=O)c(=O)[nH]c4cc3C)cc2Cl)c1 [Compound 23, N-(2-chloro-3′-methyl-[1,1′-biphenyl]-4-yl)-7-methyl-2,3-dioxo-1,2,3,4-tetrahydroquinoxaline-6-sulfonamide] | < 30 | 30 to 100 | –
Cc1cc2[nH]c(=O)c(=O)[nH]c2cc1S(=O)(=O)Nc1ccc(-c2cccs2)c(Cl)c1 [Compound 24, N-(3-chloro-4-(thiophen-2-yl)phenyl)-7-methyl-2,3-dioxo-1,2,3,4-tetrahydroquinoxaline-6-sulfonamide] | < 30 | 30 to 100 | –
O=c1[nH]c2cc(Cl)c(S(=O)(=O)Nc3ccc(-c4ccccc4F)c(Cl)c3)cc2[nH]c1=O [Compound 25, 7-chloro-N-(2-chloro-2′-fluoro-[1,1′-biphenyl]-4-yl)-2,3-dioxo-1,2,3,4-tetrahydroquinoxaline-6-sulfonamide] | < 30 | 100 to 1000 | –
Cc1cc2[nH]c(=O)c(=O)[nH]c2cc1S(=O)(=O)Nc1ccc(-c2cccc(Cl)c2)c(Cl)c1 [Compound 26, N-(2,3′-dichloro-[1,1′-biphenyl]-4-yl)-7-methyl-2,3-dioxo-1,2,3,4-tetrahydroquinoxaline-6-sulfonamide] | < 30 | 30 to 100 | –
O=c1[nH]c2cc(F)c(S(=O)(=O)Nc3ccc(-c4cccc(N5CCCC5)c4)c(Cl)c3)cc2[nH]c1=O [Compound 27, N-(2-chloro-3′-(pyrrolidin-1-yl)-[1,1′-biphenyl]-4-yl)-7-fluoro-2,3-dioxo-1,2,3,4-tetrahydroquinoxaline-6-sulfonamide] | < 30 | 1000 to 6000 | –
Cc1cc2[nH]c(=O)c(=O)[nH]c2cc1S(=O)(=O)Nc1ccc(OC(F)(F)F)cc1 [Compound 28, 7-methyl-2,3-dioxo-N-(4-(trifluoromethoxy)phenyl)-1,2,3,4-tetrahydroquinoxaline-6-sulfonamide] | < 30 | < 30 | –
Cc1cc2[nH]c(=O)c(=O)[nH]c2cc1S(=O)(=O)Nc1ccc(-c2cccnc2)c(Cl)c1 [Compound 29, N-(3-chloro-4-(pyridin-3-yl)phenyl)-7-methyl-2,3-dioxo-1,2,3,4-tetrahydroquinoxaline-6-sulfonamide] | < 30 | 100 to 1000 | –
Cc1cc2[nH]c(=O)c(=O)[nH]c2cc1S(=O)(=O)Nc1ccc(-c2ccnc(Cl)c2)c(Cl)c1 [Compound 30, N-(3-chloro-4-(2-chloropyridin-4-yl)phenyl)-7-methyl-2,3-dioxo-1,2,3,4-tetrahydroquinoxaline-6-sulfonamide] | < 30 | 30 to 100 | –
Cc1cc2[nH]c(=O)c(=O)[nH]c2cc1S(=O)(=O)Nc1ccc(-c2ccc(F)cc2)c(S(C)(=O)=O)c1 [Compound 397, N-[4-(4-fluorophenyl)-3-methylsulfonyl-phenyl]-7-methyl-2,3-dioxo-1,4-dihydroquinoxaline-6-sulfonamide] | – | – | 1000 to 3500
